System: GST-Bcl-2
Experiment: TR-FRET binding assay, Bcl-2
Details: TR-FRET Ki values
In short: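 Ki values come from Wang's competitive-binding equation applied to TR-FRET signal (excitation 340/35 nm; emission 520/525 nm F-Bak peptide, 495/510 nm Tb antibody). Protein, probe and antibody incubated with compound 3 h at room temperature; dilution series began at 50 μM as 2× stock in 10% DMSO.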

Structure (SMILES) | Binding selectivity ratio (Bcl-XL Ki/Bcl-2 Ki)
CC1(C)CCC(CN2CCN(c3ccc(C(=O)NS(=O)(=O)c4ccc(NC5CCN(Cc6cscn6)CC5)c([N+](=O)[O-])c4)c(Oc4ccc5[nH]ccc5c4)c3)CC2)=C(c2ccc(Cl)cc2)C1 [EXAMPLE 231, 4-(4-{[2-(4-chlorophenyl)-4,4-dimethylcyclohex-1-en-1-yl]methyl}piperazin-1-yl)-2-(1H-indol-5-yloxy)-N-[(3-nitro-4-{[1-(1,3-thiazol-4-ylmethyl)piperidin-4-yl]amino}phenyl)sulfonyl]benzamide] | >718.8
CC1(C)CCC(CN2CCN(c3ccc(C(=O)NS(=O)(=O)c4ccc(NCC5(F)CCOCC5)c([N+](=O)[O-])c4)c(Oc4cccc5[nH]cnc45)c3)CC2)=C(c2ccc(Cl)cc2)C1 [EXAMPLE 441, 2-(1H-benzimidazol-4-yloxy)-4-(4-{[2-(4-chlorophenyl)-4,4-dimethylcyclohex-1-en-1-yl]methyl}piperazin-1-yl)-N-[(4-{[(4-fluorotetrahydro-2H-pyran-4-yl)methyl]amino}-3-nitrophenyl)sulfonyl]benzamide] | 2421.9
CC1(C)CCC(CN2CCN(c3ccc(C(=O)NS(=O)(=O)c4ccc(NCC5CCOCC5)c(S(=O)(=O)C(F)(F)F)c4)c(Oc4ccc5[nH]ccc5c4)c3)CC2)=C(c2ccc(Cl)cc2)C1 [EXAMPLE 304, 4-(4-{[2-(4-chlorophenyl)-4,4-dimethylcyclohex-1-en-1-yl]methyl}piperazin-1-yl)-2-(1H-indol-5-yloxy)-N-({4-[(tetrahydro-2H-pyran-4-ylmethyl)amino]-3-[(trifluoromethyl)sulfonyl]phenyl}sulfonyl)benzamide] | >973.5
CC1(C)CCC(CN2CCN(c3ccc(C(=O)NS(=O)(=O)c4ccc(NCC5CN(C6CC6)CCO5)c([N+](=O)[O-])c4)c(Oc4cccc5[nH]cnc45)c3)CC2)=C(c2ccc(Cl)cc2)C1 (stereo not shown) [EXAMPLE 432, 2-(1H-benzimidazol-4-yloxy)-4-(4-{[2-(4-chlorophenyl)-4,4-dimethylcyclohex-1-en-1-yl]methyl}piperazin-1-yl)-N-[(4-{[(4-cyclopropylmorpholin-2-yl)methyl]amino}-3-nitrophenyl)sulfonyl]benzamide] | 408.8
O=C(NS(=O)(=O)c1ccc(NCC2CCOCC2)c(S(=O)(=O)C(F)(F)F)c1)c1ccc(N2CCN(Cc3cc(OCCCN4CCCCC4)ccc3-c3ccc(Cl)cc3)CC2)cc1Oc1ccccc1 [Example 118, 4-(4-{[4′-chloro-4-(3-piperidin-1-ylpropoxy)-1,1′-biphenyl-2-yl]methyl}piperazin-1-yl)-2-phenoxy-N-({4-[(tetrahydro-2H-pyran-4-ylmethyl)amino]-3-[(trifluoromethyl)sulfonyl]phenyl}sulfonyl)benzamide] | >858.3
CC1(C)CCC(CN2CCN(c3ccc(C(=O)NS(=O)(=O)c4ccc(NCC5CCC(F)(F)CC5)c([N+](=O)[O-])c4)c(Oc4cccc5[nH]ncc45)c3)CC2)=C(c2ccc(Cl)cc2)C1 [EXAMPLE 412, 4-(4-{[2-(4-chlorophenyl)-4,4-dimethylcyclohex-1-en-1-yl]methyl}piperazin-1-yl)-N-[(4-{[(4,4-difluorocyclohexyl)methyl]amino}-3-nitrophenyl)sulfonyl]-2-(1H-indazol-4-yloxy)benzamide] | 6545
CN(C)CCCNc1ccc(S(=O)(=O)NC(=O)c2ccc(N3CCN(Cc4ccccc4-c4ccc(Cl)cc4)CC3)cc2Oc2cccc3cnccc23)cc1[N+](=O)[O-] [Example 42, 4-{4-[(4′-chloro-1,1′-biphenyl-2-yl)methyl]piperazin-1-yl}-N-[(4-{[3-(dimethylamino)propyl]amino}-3-nitrophenyl)sulfonyl]-2-(isoquinolin-5-yloxy)benzamide] | 80
CC1(C)CCC(CN2CCN(c3ccc(C(=O)NS(=O)(=O)c4ccc(NCC5CCN(C(=O)OCc6ccccc6)CC5)c([N+](=O)[O-])c4)c(Oc4ccc5[nH]ccc5c4)c3)CC2)=C(c2ccc(Cl)cc2)C1 [EXAMPLE 356, benzyl 4-({[4-({[4-(4-{[2-(4-chlorophenyl)-4,4-dimethylcyclohex-1-en-1-yl]methyl}piperazin-1-yl)-2-(1H-indol-5-yloxy)benzoyl]amino}sulfonyl)-2-nitrophenyl]amino}methyl)piperidine-1-carboxylate] | >131.6
CC1(C)CCC(CN2CCN(c3ccc(C(=O)NS(=O)(=O)c4ccc(NCC(F)F)c([N+](=O)[O-])c4)c(Oc4ccc5[nH]ccc5c4)c3)CC2)=C(c2ccc(Cl)cc2)C1 [EXAMPLE 302, 4-(4-{[2-(4-chlorophenyl)-4,4-dimethylcyclohex-1-en-1-yl]methyl}piperazin-1-yl)-N-({4-[(2,2-difluoroethyl)amino]-3-nitrophenyl}sulfonyl)-2-(1H-indol-5-yloxy)benzamide] | >1309.5
CC1(C)CCC(CN2CCN(c3ccc(C(=O)NS(=O)(=O)c4ccc(NCCOC(F)(F)F)c([N+](=O)[O-])c4)c(Oc4cccc5[nH]ccc45)c3)CC2)=C(c2ccc(Cl)cc2)C1 [EXAMPLE 292, 4-(4-{[2-(4-chlorophenyl)-4,4-dimethylcyclohex-1-en-1-yl]methyl}piperazin-1-yl)-2-(1H-indol-4-yloxy)-N-[(3-nitro-4-{[2-(trifluoromethoxy)ethyl]amino}phenyl)sulfonyl]benzamide] | >1104.2
CC1(C)CCC(CN2CCN(c3ccc(C(=O)NS(=O)(=O)c4ccc(OCC5COCCO5)c([N+](=O)[O-])c4)c(Oc4ccc5[nH]ccc5c4)c3)CC2)=C(c2ccc(Cl)cc2)C1 (stereo not shown) [EXAMPLE 297, 4-(4-{[2-(4-chlorophenyl)-4,4-dimethylcyclohex-1-en-1-yl]methyl}piperazin-1-yl)-N-{[4-(1,4-dioxan-2-ylmethoxy)-3-nitrophenyl]sulfonyl}-2-(1H-indol-5-yloxy)benzamide] | 2209.5
CC1(C)CCC(CN2CCN(c3ccc(C(=O)NS(=O)(=O)c4ccc(NCCc5ccc(S(N)(=O)=O)cc5)c([N+](=O)[O-])c4)c(Oc4ccc5[nH]ccc5c4)c3)CC2)=C(c2ccc(Cl)cc2)C1 [EXAMPLE 376, N-{[4-({2-[4-(aminosulfonyl)phenyl]ethyl}amino)-3-nitrophenyl]sulfonyl}-4-(4-{[2-(4-chlorophenyl)-4,4-dimethylcyclohex-1-en-1-yl]methyl}piperazin-1-yl)-2-(1H-indol-5-yloxy)benzamide] | >29.5
CC1(C)CCC(CN2CCN(c3ccc(C(=O)NS(=O)(=O)c4ccc(NCC5(CO)CCOCC5)c([N+](=O)[O-])c4)c(Oc4ccc5[nH]ccc5c4)c3)CC2)=C(c2ccc(Cl)cc2)C1 [EXAMPLE 232, 4-(4-{[2-(4-chlorophenyl)-4,4-dimethylcyclohex-1-en-1-yl]methyl}piperazin-1-yl)-N-{[4-({[4-(hydroxymethyl)tetrahydro-2H-pyran-4-yl]methyl}amino)-3-nitrophenyl]sulfonyl}-2-(1H-indol-5-yloxy)benzamide] | 429.1
CC1CC(=O)NN=C1c1ccc(S(=O)(=O)NC(=O)c2ccc(N3CCN(Cc4ccccc4-c4ccc(Cl)cc4)CC3)cc2Oc2ccccc2)cc1 (stereo not shown) [Example 29, 4-{4-[(4′-chloro-1,1′-biphenyl-2-yl)methyl]piperazin-1-yl}-N-{[4-(4-methyl-6-oxo-1,4,5,6-tetrahydropyridazin-3-yl)phenyl]sulfonyl}-2-phenoxybenzamide] | >55.4
CC1(C)CCC(c2ccc(Cl)cc2)=C(CN2CCN(c3ccc(C(=O)NS(=O)(=O)c4ccc(NCC5CCOCC5)c([N+](=O)[O-])c4)c(Oc4ccc5[nH]ccc5c4)c3)CC2)C1 [EXAMPLE 290, 4-(4-{[2-(4-chlorophenyl)-5,5-dimethylcyclohex-1-en-1-yl]methyl}piperazin-1-yl)-2-(1H-indol-5-yloxy)-N-({3-nitro-4-[(tetrahydro-2H-pyran-4-ylmethyl)amino]phenyl}sulfonyl)benzamide] | >1808.5
CC1(C)CCC(CN2CCN(c3ccc(C(=O)NS(=O)(=O)c4ccc(NC5CCN(CCCO)CC5)c([N+](=O)[O-])c4)c(Oc4cccc5[nH]ccc45)c3)CC2)=C(c2ccc(Cl)cc2)C1 [EXAMPLE 195, 4-(4-{[2-(4-chlorophenyl)-4,4-dimethylcyclohex-1-en-1-yl]methyl}piperazin-1-yl)-N-[(4-{[1-(3-hydroxypropyl)piperidin-4-yl]amino}-3-nitrophenyl)sulfonyl]-2-(1H-indol-4-yloxy)benzamide] | 170.2
COCCOCCNc1ccc(S(=O)(=O)NC(=O)c2ccc(N3CCN(CC4=C(c5ccc(Cl)cc5)CC(C)(C)CC4)CC3)cc2Oc2ccc3[nH]ccc3c2)cc1[N+](=O)[O-] [EXAMPLE 298, 4-(4-{[2-(4-chlorophenyl)-4,4-dimethylcyclohex-1-en-1-yl]methyl}piperazin-1-yl)-2-(1H-indol-5-yloxy)-N-[(4-{[2-(2-methoxyethoxy)ethyl]amino}-3-nitrophenyl)sulfonyl]benzamide] | 1415.7
O=C(NS(=O)(=O)c1ccc(NCC2CCOCC2)c([N+](=O)[O-])c1)c1ccc(N2CCN(CC3=C(c4ccc(Cl)cc4)CCC(O)C3)CC2)cc1Oc1ccc2[nH]ccc2c1 (stereo not shown) [EXAMPLE 248, 4-(4-{[2-(4-chlorophenyl)-5-hydroxycyclohex-1-en-1-yl]methyl}piperazin-1-yl)-2-(1H-indol-5-yloxy)-N-({3-nitro-4-[(tetrahydro-2H-pyran-4-ylmethyl)amino]phenyl}sulfonyl)benzamide] | 12079.6
CC1(C)CCC(CN2CCN(c3ccc(C(=O)NS(=O)(=O)c4cnc(OCC5(F)CCOCC5)c(Cl)c4)c(Oc4cccc5[nH]ccc45)c3)CC2)=C(c2ccc(Cl)cc2)C1 [EXAMPLE 405, N-({5-chloro-6-[(4-fluorotetrahydro-2H-pyran-4-yl)methoxy]pyridin-3-yl}sulfonyl)-4-(4-{[2-(4-chlorophenyl)-4,4-dimethylcyclohex-1-en-1-yl]methyl}piperazin-1-yl)-2-(1H-indol-4-yloxy)benzamide] | 1395
